# Target: T1, human orexin type 2 receptor (hOX2R) (Homo sapiens, UniProt O43614)
# T1 construct: expressed in transfected cells
# T1 sequence (O43614 1-444): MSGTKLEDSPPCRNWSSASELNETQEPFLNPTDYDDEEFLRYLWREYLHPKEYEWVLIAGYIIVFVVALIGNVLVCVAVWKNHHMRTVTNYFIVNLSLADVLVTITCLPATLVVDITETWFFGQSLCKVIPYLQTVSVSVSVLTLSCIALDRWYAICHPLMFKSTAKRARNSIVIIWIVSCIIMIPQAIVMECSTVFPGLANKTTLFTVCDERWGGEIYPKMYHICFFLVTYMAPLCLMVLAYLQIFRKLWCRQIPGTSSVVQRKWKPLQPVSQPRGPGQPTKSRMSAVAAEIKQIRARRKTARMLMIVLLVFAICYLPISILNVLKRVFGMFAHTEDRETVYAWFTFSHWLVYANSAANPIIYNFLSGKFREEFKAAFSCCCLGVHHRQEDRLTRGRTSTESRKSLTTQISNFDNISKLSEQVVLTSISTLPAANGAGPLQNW
# Experiment: Measurement of orexin type 2 receptor agonist activity (Fluo-4 calcium fluorescence, CHO cells forcibly expressing human OX2 receptor)
# Type: cell-based
# Conditions: test compound 3 μM, DMSO = 0%, orexin A (human) 10 nM = 100%
# Outline: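 CHO-dhfr cells stably expressing human OX2 receptor, loaded with Fluo-4 AM in HBSS/HEPES/BSA with probenecid, then given test compound at 3 μM. Calcium fluorescence recorded for about 2 min 40 s by FDSS; activity normalized to DMSO (0%) and 10 nM human orexin A (100%).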
row,Structure (SMILES),"OX2R agonist activity (3 μM, %)"
1,"CO[C@@H]1CN(C(=O)c2cc(C)ccc2C)C[C@H]1Oc1cccc(CS(=O)(=O)N2CCC23CCOC3)c1 (relative stereo) [Example 19, trans-(2,5-dimethylphenyl)(3-methoxy-4-(3-((6-oxa-1-azaspiro[3.4]oct-1-ylsulfonyl)methyl)phenoxy)pyrrolidin-1-yl)methanone]",67%
2,"COc1cccc(OC)c1C(=O)N1C[C@@H](OC)[C@H](Oc2cccc(CS(=O)(=O)N3CCCC3c3ccccn3)c2)C1 (relative stereo) [Example 100, trans-(2,6-dimethoxyphenyl)(3-methoxy-4-(3-(((2-(pyridin-2-yl)pyrrolidin-1-yl)sulfonyl)methyl)phenoxy)pyrrolidin-1-yl)methanone]",93%
3,"Cc1ccc(C)c(C(=O)N2CC[C@H](Oc3cccc(CS(=O)(=O)N4CCCC4c4ccccn4)c3)C2)c1 (stereo partly drawn) [Example 25, (2,5-dimethylphenyl)((3S)-3-(3-(((2-(pyridin-2-yl)pyrrolidin-1-yl)sulfonyl)methyl)phenoxy)pyrrolidin-1-yl)methanone]",29%
4,"COc1ccccc1C1CCCN1S(=O)(=O)Cc1cccc(O[C@@H]2CN(C(=O)c3cc(C)ccc3C)C[C@H]2OC)c1 (relative stereo) [Example 83, trans-(2,5-dimethylphenyl)(3-methoxy-4-(3-(((2-(2-methoxyphenyl)pyrrolidin-1-yl)sulfonyl)methyl)phenoxy)pyrrolidin-1-yl)methanone]",75%
5,"CO[C@@H]1CN(C(=O)c2cc(C)ccc2C)C[C@H]1Oc1cccc(CS(=O)(=O)N2CCCC2c2cccnc2C)c1 (relative stereo) [Example 114, trans-(2,5-dimethylphenyl)(3-methoxy-4-(3-(((2-(2-methylpyridin-3-yl)pyrrolidin-1-yl)sulfonyl)methyl)phenoxy)pyrrolidin-1-yl)methanone]",100%
6,"CO[C@@H]1CN(C(=O)c2cc(C)ccc2C)C[C@H]1Oc1cccc(NS(=O)(=O)N(C)C2CCOC2)c1 (relative stereo) [Example 46, trans-N′-(3-((1-(2,5-dimethylbenzoyl)-4-methoxypyrrolidin-3-yl)oxy)phenyl)-N-methyl-N-(tetrahydrofuran-3-yl)sulfuric diamide]",94%
7,"CO[C@@H]1CN(C(=O)c2cc(C)ccc2C)C[C@H]1Oc1cccc(CS(=O)(=O)N2CCC23CN(C(=O)OC(C)(C)C)C3)c1 (relative stereo) [Example 32, tert-butyl trans-1-((3-((1-(2,5-dimethylbenzoyl)-4-methoxypyrrolidin-3-yl)oxy)benzyl)sulfonyl)-1,6-diazaspiro[3.3]heptane-6-carboxylate]",109%
8,"CO[C@@H]1CN(C(=O)c2cc(C)ccc2C)C[C@H]1Oc1cccc(NS(=O)(=O)N2CCC(c3cccnc3)C2)c1 (relative stereo) [Example 53, trans-N-(3-((1-(2,5-dimethylbenzoyl)-4-methoxypyrrolidin-3-yl)oxy)phenyl)-3-(pyridin-3-yl)pyrrolidine-1-sulfonamide]",99%
9,"CO[C@@H]1CN(C(=O)c2cc(C)ccc2C)C[C@H]1Oc1cccc(CS(=O)(=O)N2CCCC2Cc2cccnc2)c1 (relative stereo) [Example 36, trans-(2,5-dimethylphenyl)(3-methoxy-4-(3-(((2-(pyridin-3-ylmethyl)pyrrolidin-1-yl)sulfonyl)methyl)phenoxy)pyrrolidin-1-yl)methanone]",89%
10,"COC1CN(C(=O)c2cc(C)ccc2C)CC1Oc1cccc(NS(=O)(=O)N2CC[C@H]3CCN(C)C[C@@H]32)c1 (relative stereo) [Example 76, trans-N-(3-((1-(2,5-dimethylbenzoyl)-4-methoxypyrrolidin-3-yl)oxy)phenyl)-6-methyloctahydro-1H-pyrrolo[2,3-c]pyridine-1-sulfonamide]",82%
11,"CO[C@@H]1CN(C(=O)c2cc(C)ccc2C)C[C@H]1Oc1cccc(CS(=O)(=O)N(C)C2CCOCC2)c1 (relative stereo) [Example 31, trans-1-(3-((1-(2,5-dimethylbenzoyl)-4-methoxypyrrolidin-3-yl)oxy)phenyl)-N-methyl-N-(tetrahydro-2H-pyran-4-yl)methanesulfonamide]",94%
12,"CO[C@@H]1CN(C(=O)c2cc(C)ccc2C)C[C@H]1Oc1cccc(NS(=O)(=O)N(C)C2CC2)c1 (relative stereo) [Example 44, trans-N-cyclopropyl-N′-(3-((1-(2,5-dimethylbenzoyl)-4-methoxypyrrolidin-3-yl)oxy)phenyl)-N-methylsulfuric diamide]",73%
13,"CO[C@@H]1CN(C(=O)c2cc(C)ccc2C)C[C@H]1Oc1cccc(NS(=O)(=O)N2CCC3(CC3)C2)c1 (relative stereo) [Example 69, trans-N-(3-((1-(2,5-dimethylbenzoyl)-4-methoxypyrrolidin-3-yl)oxy)phenyl)-5-azaspiro[2.4]heptane-5-sulfonamide]",82%

# The next lines start with the values.
row,"OX2R agonist activity (3 μM, %)",Structure (SMILES)
1,45%,"CO[C@@H]1CN(C(=O)C(F)(F)c2ccccc2)C[C@H]1Oc1cccc(CS(=O)(=O)N(C)C2CCOCC2)c1 (relative stereo) [Example 145, trans-1-(3-((1-(difluoro(phenyl)acetyl)-4-methoxypyrrolidin-3-yl)oxy)phenyl)-N-methyl-N-(tetrahydro-2H-pyran-4-yl)methanesulfonamide]"
2,96%,"COc1ccc(C)c(C)c1C(=O)N1C[C@@H](OC)[C@H](Oc2cccc(CS(=O)(=O)N(C)C3CCOCC3)c2)C1 (relative stereo) [Example 162, trans-1-(3-((4-methoxy-1-(6-methoxy-2,3-dimethylbenzoyl)pyrrolidin-3-yl)oxy)phenyl)-N-methyl-N-(tetrahydro-2H-pyran-4-yl)methanesulfonamide]"
3,68%,"COC1CN(C(=O)c2cc(C)ccc2C)CC1Oc1cc(NS(=O)(=O)N2C[C@@H]3C[C@H]3C2)cc(F)n1 (relative stereo) [Example 116, trans-N-(2-((1-(2,5-dimethylbenzoyl)-4-methoxypyrrolidin-3-yl)oxy)-6-fluoropyridin-4-yl)-3-azabicyclo[3.1.0]hexane-3-sulfonamide]"
4,43%,"CCc1cccc(C)c1C(=O)N1C[C@@H](OC)[C@H](Oc2cccc(C(F)(F)S(=O)(=O)N(C)C3CCOCC3)c2)C1 (relative stereo) [Example 150, trans-1-(3-((1-(2-ethyl-6-methylbenzoyl)-4-methoxypyrrolidin-3-yl)oxy)phenyl)-1,1-difluoro-N-methyl-N-(tetrahydro-2H-pyran-4-yl)methanesulfonamide]"
5,93%,"COC1CN(C(=O)c2cc(C)ccc2C)CC1Oc1cc(NS(=O)(=O)N2C[C@@H]3C[C@H]3C2)cc(C)n1 (relative stereo) [Example 117, trans-N-(2-((1-(2,5-dimethylbenzoyl)-4-methoxypyrrolidin-3-yl)oxy)-6-methylpyridin-4-yl)-3-azabicyclo[3.1.0]hexane-3-sulfonamide]"
6,38%,"CO[C@@H]1CN(C(=O)Oc2ccccc2C)C[C@H]1Oc1cccc(NS(=O)(=O)N2CC3CC3C2)c1 (stereo partly drawn) [Example 138, 2-methylphenyl(3R,4R)-3-(3-((3-azabicyclo[3.1.0]hex-3-ylsulfonyl)amino)phenoxy)-4-methoxypyrrolidine-1-carboxylate]"
7,37%,"CO[C@@H]1CN(C(=O)C2(c3ccccc3)CCC2)C[C@H]1Oc1cccc(CS(=O)(=O)N(C)C2CCOCC2)c1 (relative stereo) [Example 147, trans-1-(3-((4-methoxy-1-((1-phenylcyclobutyl)carbonyl)pyrrolidin-3-yl)oxy)phenyl)-N-methyl-N-(tetrahydro-2H-pyran-4-yl)methanesulfonamide]"
8,111%,"CO[C@@H]1CN(C(=O)c2c(C)cccc2C2CC2)C[C@H]1Oc1cccc(CS(=O)(=O)N(C)C2CCOCC2)c1 (relative stereo) [Example 160, trans-1-(3-((1-(2-cyclopropyl-6-methylbenzoyl)-4-methoxypyrrolidin-3-yl)oxy)phenyl)-N-methyl-N-(tetrahydro-2H-pyran-4-yl)methanesulfonamide]"
9,88%,"CO[C@@H]1CN(C(=O)c2cc(C)ccc2C)C[C@H]1Oc1cccc(C(C)S(=O)(=O)N2CCC[C@H]2c2ccccn2)c1 (stereo partly drawn) [Example 137, (2,5-dimethylphenyl)((3R,4R)-3-methoxy-4-(3-(1-(((2S)-2-(pyridin-2-yl)pyrrolidin-1-yl)sulfonyl)ethyl)phenoxy)pyrrolidin-1-yl)methanone]"
10,105%,"CCc1cccc(C)c1C(=O)N1C[C@@H](OC)[C@H](Oc2cccc(CS(=O)(=O)N(C)C3CCOCC3)c2)C1 [Example 146, 1-(3-(((3R,4R)-1-(2-ethyl-6-methylbenzoyl)-4-methoxypyrrolidin-3-yl)oxy)phenyl)-N-methyl-N-(tetrahydro-2H-pyran-4-yl)methanesulfonamide]"
11,76%,"CO[C@@H]1CN(C(=O)Oc2c(C)cccc2C)C[C@H]1Oc1cccc(NS(=O)(=O)N2CC3CC3C2)c1 (stereo partly drawn) [Example 148, 2,6-dimethylphenyl(3R,4R)-3-(3-((3-azabicyclo[3.1.0]hex-3-ylsulfonyl)amino)phenoxy)-4-methoxypyrrolidine-1-carboxylate]"

# Reference: patent publication US11059780B2, “Substituted pyrrolidine compound and use thereof” (Takeda Pharmaceutical Company Limited, priority 2017, dated 2021)
